Assay results published in US20060045953A1 (priority 2004, published 2006).

Target: T1, hT1R2/hT1R3 sweet receptor (Homo sapiens, UniProt Q7RTX0+Q8TE23)
T1 construct: expressed in transfected cells; host or cells: HEK293 derivative stably expressing Gα15, clone S-9
T1 sequence (Q8TE23 20-839): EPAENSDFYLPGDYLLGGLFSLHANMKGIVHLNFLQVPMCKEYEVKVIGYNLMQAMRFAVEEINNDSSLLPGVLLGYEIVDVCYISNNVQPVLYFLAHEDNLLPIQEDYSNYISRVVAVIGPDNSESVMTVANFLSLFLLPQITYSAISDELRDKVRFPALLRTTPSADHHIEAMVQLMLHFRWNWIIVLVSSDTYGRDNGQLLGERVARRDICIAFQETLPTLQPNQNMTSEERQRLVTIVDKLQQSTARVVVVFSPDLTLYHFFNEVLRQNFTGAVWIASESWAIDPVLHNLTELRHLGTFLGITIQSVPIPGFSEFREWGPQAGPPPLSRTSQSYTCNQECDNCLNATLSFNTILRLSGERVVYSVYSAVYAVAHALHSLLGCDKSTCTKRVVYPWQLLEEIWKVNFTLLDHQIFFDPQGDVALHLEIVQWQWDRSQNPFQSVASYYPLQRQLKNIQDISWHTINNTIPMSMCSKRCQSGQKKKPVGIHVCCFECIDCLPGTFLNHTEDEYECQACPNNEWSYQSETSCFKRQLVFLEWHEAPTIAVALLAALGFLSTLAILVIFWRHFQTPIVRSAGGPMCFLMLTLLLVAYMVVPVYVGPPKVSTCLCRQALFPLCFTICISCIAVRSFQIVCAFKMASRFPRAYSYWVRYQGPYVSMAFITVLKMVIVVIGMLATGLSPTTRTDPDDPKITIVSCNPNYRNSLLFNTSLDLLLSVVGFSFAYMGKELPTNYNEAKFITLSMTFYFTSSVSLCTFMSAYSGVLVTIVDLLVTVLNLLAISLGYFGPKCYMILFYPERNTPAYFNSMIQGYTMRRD
T1 sequence (Q7RTX0 21-852): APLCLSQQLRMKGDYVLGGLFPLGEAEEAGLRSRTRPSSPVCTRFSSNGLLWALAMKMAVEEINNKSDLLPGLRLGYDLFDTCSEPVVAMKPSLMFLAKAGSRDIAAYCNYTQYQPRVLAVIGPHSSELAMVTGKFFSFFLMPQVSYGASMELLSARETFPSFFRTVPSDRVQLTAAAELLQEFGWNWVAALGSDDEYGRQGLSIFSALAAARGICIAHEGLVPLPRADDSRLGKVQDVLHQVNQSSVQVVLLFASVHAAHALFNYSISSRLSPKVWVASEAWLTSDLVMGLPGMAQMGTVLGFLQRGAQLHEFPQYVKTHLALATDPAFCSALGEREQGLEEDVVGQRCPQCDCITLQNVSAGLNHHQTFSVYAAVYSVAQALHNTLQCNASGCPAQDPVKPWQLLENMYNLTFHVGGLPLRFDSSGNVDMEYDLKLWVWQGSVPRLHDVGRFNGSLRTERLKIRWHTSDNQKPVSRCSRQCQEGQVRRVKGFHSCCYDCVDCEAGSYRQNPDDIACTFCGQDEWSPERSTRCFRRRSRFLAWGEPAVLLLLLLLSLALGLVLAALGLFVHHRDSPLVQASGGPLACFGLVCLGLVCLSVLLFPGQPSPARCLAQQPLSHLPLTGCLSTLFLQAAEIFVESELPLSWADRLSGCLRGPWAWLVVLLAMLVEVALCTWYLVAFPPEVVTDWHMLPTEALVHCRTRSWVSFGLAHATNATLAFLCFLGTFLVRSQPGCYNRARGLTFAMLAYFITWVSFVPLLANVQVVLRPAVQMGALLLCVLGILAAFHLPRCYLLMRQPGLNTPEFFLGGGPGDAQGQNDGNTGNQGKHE
Test: In vitro hT1R2/hT1R3 sweet taste receptor activation assay (FLIPR, dose response)
Type: cell-based
Details: Table E, Sweet Enhancer Amides; read-out: Sweet EC50
Procedure: Activity was determined using an automated fluorometric imaging assay on a FLIPR instrument (Fluorometric Intensity Plate Reader, Molecular Devices, Sunnyvale, Calif.) (designated FLIPR assay). […] S-9 cells were grown for 24 hours at 37° C. S-9 cells were then loaded with the calcium dye Fluo-3AM (Molecular Probes, Eugene, Oreg.), 4 µM in a phosphate buffered saline (D-PBS) (Invitrogen, Carlsbad, Calif.), for 1 hour at room temperature. After replacement with 25 µl D-PBS, stimulation was performed in the FLIPR instrument and at room temperature by the addition of 25 µl D-PBS supplemented with different stimuli at concentrations corresponding to twice the desired final level.
For dose-responses analysis, stimuli were presented in duplicates at 10 different concentrations ranging from 60 nM to 30 µM. Activities were normalized to the response obtained with 400 mM D-fructose, a concentration that elicits maximum receptor response. EC50s were determined using a non-linear regression algorithm (using a Senomyx, Inc. software), where the Hill slope, bottom asymptotes and top asymptotes were allow to vary.

`CC1CCc2ccccc2C1NC(=O)c1cccc(Cl)c1O` (stereo not shown) [Example E1, 3-chloro-2-hydroxy-N-(2-methyl-1,2,3,4-tetrahydronaphthalen-1-yl)benzamide] was tested. Which EC50 did it give?
The EC50 was 0.19 µM.

`O=C(N[C@@H]1CCCc2ccccc21)c1cccc(Cl)c1O` [Example E2, (R)-3-chloro-2-hydroxy-N-(1,2,3,4-tetrahydronaphthalen-1-yl)benzamide] was tested. Which EC50 did it give?
Its EC50 is 0.65 µM.

`O=C(NC1CCCc2c(O)cccc21)c1cccc(Cl)c1O` (stereo not shown) [Example E3, 3-chloro-2-hydroxy-N-(5-hydroxy-1,2,3,4-tetrahydronaphthalen-1-yl)benzamide] was tested. Which EC50 did it give?
The EC50 was 1.03 µM.

For `CC1CCC(NC(=O)c2cccc(Cl)c2O)c2ccccc21` (stereo not shown) [Example E4, 3-chloro-2-hydroxy-N-(4-methyl-1,2,3,4-tetrahydronaphthalen-1-yl)benzamide], which EC50 is on record?
The EC50 was 1.61 µM.

For `COc1ccc2c(c1)CCCC2NC(=O)c1cccc(Cl)c1O` (stereo not shown) [Example E5, 3-chloro-2-hydroxy-N-(6-methoxy-1,2,3,4-tetrahydronaphthalen-1-yl)benzamide], which EC50 is on record?
The EC50 was 1.61 µM.

Same assay, conditions: read-out: EC50 for activation of a hT1R2/hT1R3 sweet receptor expressed in an HEK293 cell line

`Cc1c(F)c(F)c(C(=O)N[C@@H](C)C(C)C)c(F)c1F` [Example 163, (S)-2,3,5,6-tetrafluoro-4-methyl-N-(3-methylbutan-2-yl)benzamide] was tested. Which EC50 did it give?
Its EC50 is 0.6 µM.

Which EC50 does the source give for `Cc1cccc(C)c1C(=O)NC1CCCCC1C` (stereo not shown) [Example 168, 2,6-dimethyl-N-(2-methylcyclohexyl)benzamide] here?
The EC50 was 1.88 µM.

Which EC50 does the source give for `COc1cc(C)c(C(=O)NC2CCCCC2C)c(C)c1` (stereo not shown) [Example 169, 4-methoxy-2,6-dimethyl-N-(2-methylcyclohexyl)benzamide] here?
The EC50 was 2.1 µM.

`O=C(N[C@@H]1CCCc2ccccc21)c1ccoc1` [Example 170, (R)-N-(1,2,3,4-tetrahydronaphthalen-1-yl)furan-3-carboxamide] was tested. Which EC50 did it give?
Its EC50 is 6.6 µM.

`Cc1cc(Cl)ccc1NC(=O)N1Cc2ccccc2C1` [Example 172, N-(4-chloro-2-methylphenyl)isoindoline-2-carboxamide] was tested. Which EC50 did it give?
The EC50 was 0.89 µM.

`COc1ccc(NC(=O)N2Cc3ccccc3C2)c(C)c1` [Example 173, N-(4-methoxy-2-methylphenyl)isoindoline-2-carboxamide] was tested. Which EC50 did it give?
The EC50 was 4.5 µM.

Which EC50 does the source give for `Cc1ccc2c(c1)C(NC(=O)c1cccc(Cl)c1O)CCC2` (stereo not shown) [Example 178, 3-Chloro-2-hydroxy-N-(7-methyl-1,2,3,4-tetrahydronaphthalen-1-yl)benzamide] here?
The EC50 was 1.48 µM.

Which EC50 does the source give for `CC1CCc2ccccc2C1NC(=O)c1cccc(Cl)c1O` (stereo not shown) [Example 179, 3-Chloro-2-hydroxy-N-(2-methyl-1,2,3,4-tetrahydronaphthalen-1-yl)benzamide] here?
Its EC50 is 0.38 µM.

With `CCOc1cccc2c1CCCC2NC(=O)c1conc1C` (stereo not shown) [Example 181] as the molecule, how does the EC50 read?
The EC50 was 4.5 µM.

Which EC50 does the source give for `Cc1cccc2c1CCC[C@H]2NC(=O)c1conc1C` [Example 182, (R)-3-Methyl-N-(5-methyl-1,2,3,4-tetrahydronaphthalen-1-yl)isoxazole-4-carboxamide] here?
Its EC50 is 2.8 µM.

For `COc1ccc2c(c1)[C@H](NC(=O)c1cccc(Cl)c1O)CCC2` [Example 184, (R)-3-Chloro-2-hydroxy-N-(7-methoxy-1,2,3,4-tetrahydronaphthalen-1-yl)benzamide], which EC50 is on record?
The EC50 was 0.26 µM.

Which EC50 does the source give for `O=C(N[C@@H]1CCOc2ccccc21)c1cccc(Cl)c1O` [Example 185, (R)-3-Chloro-N-(3,4-dihydro-2H-chromen-4-yl)-2-hydroxybenzamide] here?
Its EC50 is 1.03 µM.

`COc1cccc2c1CCC(C)C2NC(=O)c1cccc(Cl)c1O` (stereo not shown) [Example 186, 3-Chloro-2-hydroxy-N-(5-methoxy-2-methyl-1,2,3,4-tetrahydronaphthalen-1-yl)benzamide] was tested. Which EC50 did it give?
Its EC50 is 0.5 µM.

How did the EC50 turn out when `CCc1nocc1C(=O)N[C@@H]1CCCc2c(OC)cccc21` [Example 187, (R)-3-Ethyl-N-(5-methoxy-1,2,3,4-tetrahydronaphthalen-1-yl)isoxazole-4-carboxamide] was run?
The EC50 was 0.4 µM.

How did the EC50 turn out when `CCCc1nocc1C(=O)N[C@@H]1CCCc2c(OC)cccc21` [Example 188, (R)-3-Propyl-N-(5-methoxy-1,2,3,4-tetrahydronaphthalen-1-yl)isoxazole-4-carboxamide] was run?
Its EC50 is 0.24 µM.

For `CCCCc1nocc1C(=O)N[C@@H]1CCCc2c(OC)cccc21` [Example 189, (R)-3-Butyl-N-(5-methoxy-1,2,3,4-tetrahydronaphthalen-1-yl)isoxazole-4-carboxamide], which EC50 is on record?
Its EC50 is 0.36 µM.

For `COc1cccc2c1CCC[C@H]2NC(=O)c1conc1C` [Example 190, (R)-3-methyl-N-(5-methoxy-1,2,3,4-tetrahydronaphthalen-1-yl)isoxazole-4-carboxamide], which EC50 is on record?
Its EC50 is 0.95 µM.

How did the EC50 turn out when `C=CCc1c(F)c(F)c(C(=O)N[C@@H](C)C(C)C)c(F)c1F` [Example 191, (S)-4-allyl-2,3,5,6-tetrafluoro-N-(3-methylbutan-2-yl)benzamide] was run?
Its EC50 is 0.14 µM.

For `CCCc1c(F)c(F)c(C(=O)N[C@@H](C)C(C)C)c(F)c1F` [Example 192, (S)-2,3,5,6-tetrafluoro-N-(3-methylbutan-2-yl)-4-propylbenzamide], which EC50 is on record?
Its EC50 is 0.14 µM.

How did the EC50 turn out when `Cc1cccc2c1CN(C(=O)Nc1c(F)cc(Br)cc1F)C2` [Example 193, N-(4-bromo-2,6-difluorophenyl)-4-methylisoindoline-2-carboxamide] was run?
The EC50 was 0.02 µM.

How did the EC50 turn out when `Cc1cc(F)c(NC(=O)N2Cc3cccc(C)c3C2)c(F)c1` [Example 194, N-(2,6-difluoro-4-methylphenyl)-4-methylisoindoline-2-carboxamide] was run?
The EC50 was 0.06 µM.

For `COc1cc(F)c(NC(=O)N2Cc3cccc(C)c3C2)c(F)c1` [Example 195, N-(2,6-difluoro-4-methoxyphenyl)-4-methylisoindoline-2-carboxamide], which EC50 is on record?
The EC50 was 0.067 µM.

With `O=C(Nc1c(F)cc(Br)cc1F)N1Cc2cccc([N+](=O)[O-])c2C1` [Example 196, N-(4-Bromo-2,6-difluorophenyl)-4-nitroisoindoline-2-carboxamide] as the molecule, how does the EC50 read?
The EC50 was 1.07 µM.

`Cc1ccc2c(c1)CN(C(=O)Nc1c(F)cc(Br)cc1F)C2` [Example 197, N-(4-Bromo-2,6-difluorophenyl)-5-methylisoindoline-2-carboxamide] was tested. Which EC50 did it give?
Its EC50 is 0.52 µM.

How did the EC50 turn out when `O=C(Nc1c(F)cc(Br)cc1F)N1Cc2ccc(Br)cc2C1` [Example 198, 5-Bromo-N-(4-bromo-2,6-difluorophenyl)isoindoline-2-carboxamide] was run?
The EC50 was 0.42 µM.

For `Cc1cccc2c1CN(C(=O)Nc1ccc3c(c1)OCO3)C2` [Example 199, N-(3,4-(methylenedioxy)phenyl)-4-methylisoindoline-2-carboxamide], which EC50 is on record?
Its EC50 is 0.95 µM.

How did the EC50 turn out when `CSc1cc(C)c(C(=O)N[C@H](C)C(C)(C)C)c(C)c1` [Example 200, (R)-N-(3,3-dimethylbutan-2-yl)-2,6-dimethyl-4-(methylthio)benzamide] was run?
The EC50 was 1.02 µM.

Which EC50 does the source give for `CCCOc1cc(C)c(C(=O)NC2CCCCC2C)c(C)c1` (stereo not shown) [Example 201, 2,6-dimethyl-N-(2-methylcyclohexyl)-4-propoxybenzamide] here?
The EC50 was 0.69 µM.

How did the EC50 turn out when `Cc1cc(-c2ccco2)cc(C)c1C(=O)NC1CCCCC1C` (stereo not shown) [Example 202, 4-(furan-2-yl)-2,6-dimethyl-N-(2-methylcyclohexyl)benzamide] was run?
The EC50 was 1.02 µM.
